According to patent US20040266623A1, “SYNERGISTIC QUINCLORAC HERBICIDAL COMPOSITIONS” (priority 2003, published 2004):

Test system: crabgrass
Test: Greenhouse pot test, postemergent spray, visual control rating converted to percent control
Type: in vivo
Method in brief: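 Visual 1–9 ratings (1 no control, 9 death) converted to % control; read 24/48/72 HAT, 7/14/21 DAT. Postemergent pot spray, 43.46 gal/acre, soilless greenhouse media. Expected combination responses by Colby's formulas.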

For `O=C(O)c1c(Cl)ccc2cc(Cl)cnc12` [Quinclorac, 3,7-dichloro-8-quinolinecarboxylic acid], the “% Control Crabgrass” value (Test 1, 7 DAT, 0.18 lbs/A) was 44.4%, the “Control (1-9) Crabgrass” value (Test 1, 7 DAT, 0.18 lbs/A) was 4 and the “% Control Crabgrass” value (Test 1, 7 DAT, 0.375 lbs/A) was 44.4%. For the same compound, the “Control (1-9) Crabgrass” value (Test 1, 7 DAT, 0.375 lbs/A) was 4, the “% Control Crabgrass” value (Test 1, 7 DAT, 0.75 lbs/A) was 44.4% and the “Control (1-9) Crabgrass” value (Test 1, 7 DAT, 0.75 lbs/A) was 4. The “% Control Crabgrass” value (Test 1, 14 DAT, 0.18 lbs/A) was 77.8%, the “Control (1-9) Crabgrass” value (Test 1, 14 DAT, 0.18 lbs/A) was 7 and the “% Control Crabgrass” value (Test 1, 14 DAT, 0.375 lbs/A) was 55.6%. The “Control (1-9) Crabgrass” value (Test 1, 14 DAT, 0.375 lbs/A) was 5, the “% Control Crabgrass” value (Test 1, 14 DAT, 0.75 lbs/A) was 55.6% and the “Control (1-9) Crabgrass” value (Test 1, 14 DAT, 0.75 lbs/A) was 5. For the same compound, the “% Control Crabgrass” value (Test 1, 24 HAT, 0.18 lbs/A) was 22.2%, the “Control (1-9) Crabgrass” value (Test 1, 24 HAT, 0.18 lbs/A) was 2 and the “% Control Crabgrass” value (Test 1, 24 HAT, 0.375 lbs/A) was 22.2%. For the same compound, the “Control (1-9) Crabgrass” value (Test 1, 24 HAT, 0.375 lbs/A) was 2, the “% Control Crabgrass” value (Test 1, 24 HAT, 0.75 lbs/A) was 22.2% and the “Control (1-9) Crabgrass” value (Test 1, 24 HAT, 0.75 lbs/A) was 2. The “% Control Crabgrass” value (Test 1, 48 HAT, 0.18 lbs/A) was 33.3%, the “Control (1-9) Crabgrass” value (Test 1, 48 HAT, 0.18 lbs/A) was 3 and the “% Control Crabgrass” value (Test 1, 48 HAT, 0.375 lbs/A) was 44.4%. For the same compound, the “Control (1-9) Crabgrass” value (Test 1, 48 HAT, 0.375 lbs/A) was 4, the “% Control Crabgrass” value (Test 1, 48 HAT, 0.75 lbs/A) was 44.4% and the “Control (1-9) Crabgrass” value (Test 1, 48 HAT, 0.75 lbs/A) was 4. The “% Control Crabgrass” value (Test 2, 7 DAT, 0.18 lbs/A) was 33.3%, the “Control (1-9) Crabgrass” value (Test 2, 7 DAT, 0.18 lbs/A) was 3 and the “% Control Crabgrass” value (Test 2, 7 DAT, 0.375 lbs/A) was 77.8%. For the same compound, the “Control (1-9) Crabgrass” value (Test 2, 7 DAT, 0.375 lbs/A) was 7, the “% Control Crabgrass” value (Test 2, 7 DAT, 0.75 lbs/A) was 77.8% and the “Control (1-9) Crabgrass” value (Test 2, 7 DAT, 0.75 lbs/A) was 7. The “% Control Crabgrass” value (Test 2, 14 DAT, 0.18 lbs/A) was 55.6%, the “Control (1-9) Crabgrass” value (Test 2, 14 DAT, 0.18 lbs/A) was 5 and the “% Control Crabgrass” value (Test 2, 14 DAT, 0.375 lbs/A) was 77.8%. The “Control (1-9) Crabgrass” value (Test 2, 14 DAT, 0.375 lbs/A) was 7, the “% Control Crabgrass” value (Test 2, 14 DAT, 0.75 lbs/A) was 88.9% and the “Control (1-9) Crabgrass” value (Test 2, 14 DAT, 0.75 lbs/A) was 8. For the same compound, the “% Control Crabgrass” value (Test 2, 24 HAT, 0.18 lbs/A) was 33.3%, the “Control (1-9) Crabgrass” value (Test 2, 24 HAT, 0.18 lbs/A) was 3 and the “% Control Crabgrass” value (Test 2, 24 HAT, 0.375 lbs/A) was 22.2%. The “Control (1-9) Crabgrass” value (Test 2, 24 HAT, 0.375 lbs/A) was 2, the “% Control Crabgrass” value (Test 2, 24 HAT, 0.75 lbs/A) was 22.2% and the “Control (1-9) Crabgrass” value (Test 2, 24 HAT, 0.75 lbs/A) was 2. The “% Control Crabgrass” value (Test 2, 72 HAT, 0.18 lbs/A) was 44.4%, the “Control (1-9) Crabgrass” value (Test 2, 72 HAT, 0.18 lbs/A) was 4 and the “% Control Crabgrass” value (Test 2, 72 HAT, 0.375 lbs/A) was 33.3%. For the same compound, the “Control (1-9) Crabgrass” value (Test 2, 72 HAT, 0.375 lbs/A) was 3, the “% Control Crabgrass” value (Test 2, 72 HAT, 0.75 lbs/A) was 44.4% and the “Control (1-9) Crabgrass” value (Test 2, 72 HAT, 0.75 lbs/A) was 4. For the same compound, the “% Control Crabgrass” value (Test 4, 7 DAT, 0.18 lbs/A) was 11.1%, the “Control (1-9) Crabgrass” value (Test 4, 7 DAT, 0.18 lbs/A) was 1 and the “% Control Crabgrass” value (Test 4, 7 DAT, 0.375 lbs/A) was 22.2%. For the same compound, the “Control (1-9) Crabgrass” value (Test 4, 7 DAT, 0.375 lbs/A) was 2, the “% Control Crabgrass” value (Test 4, 7 DAT, 0.75 lbs/A) was 22.2% and the “Control (1-9) Crabgrass” value (Test 4, 7 DAT, 0.75 lbs/A) was 2. For the same compound, the “% Control Crabgrass” value (Test 4, 14 DAT, 0.18 lbs/A) was 22.2%, the “Control (1-9) Crabgrass” value (Test 4, 14 DAT, 0.18 lbs/A) was 2 and the “% Control Crabgrass” value (Test 4, 14 DAT, 0.375 lbs/A) was 33.3%. The “Control (1-9) Crabgrass” value (Test 4, 14 DAT, 0.375 lbs/A) was 3, the “% Control Crabgrass” value (Test 4, 14 DAT, 0.75 lbs/A) was 44.4% and the “Control (1-9) Crabgrass” value (Test 4, 14 DAT, 0.75 lbs/A) was 4.
